In patent US9340590B2 (priority 2011, dated 2016):
Read-outs that look alike come from different tables or passages of the source. Positions of bridges follow the written chain, without caps; N, C: chain ends. Non-standard residues stand in square brackets, D forms with d. Residues, ends and D or L forms follow the SMILES beside them. Phe(4-COOH) = N[C@@H](Cc1ccc(C(=O)O)cc1)C(=O)O

Columns and labels:
Assay in all cases: cell-based
[1] = target: hNav1.3 (Homo sapiens, UniProt Q9NY46)
[2] = target: hNav1.7 (Homo sapiens, UniProt Q15858); type: cell-based
Sequence of hNav1.7 (Q15858 whole entry, looked up): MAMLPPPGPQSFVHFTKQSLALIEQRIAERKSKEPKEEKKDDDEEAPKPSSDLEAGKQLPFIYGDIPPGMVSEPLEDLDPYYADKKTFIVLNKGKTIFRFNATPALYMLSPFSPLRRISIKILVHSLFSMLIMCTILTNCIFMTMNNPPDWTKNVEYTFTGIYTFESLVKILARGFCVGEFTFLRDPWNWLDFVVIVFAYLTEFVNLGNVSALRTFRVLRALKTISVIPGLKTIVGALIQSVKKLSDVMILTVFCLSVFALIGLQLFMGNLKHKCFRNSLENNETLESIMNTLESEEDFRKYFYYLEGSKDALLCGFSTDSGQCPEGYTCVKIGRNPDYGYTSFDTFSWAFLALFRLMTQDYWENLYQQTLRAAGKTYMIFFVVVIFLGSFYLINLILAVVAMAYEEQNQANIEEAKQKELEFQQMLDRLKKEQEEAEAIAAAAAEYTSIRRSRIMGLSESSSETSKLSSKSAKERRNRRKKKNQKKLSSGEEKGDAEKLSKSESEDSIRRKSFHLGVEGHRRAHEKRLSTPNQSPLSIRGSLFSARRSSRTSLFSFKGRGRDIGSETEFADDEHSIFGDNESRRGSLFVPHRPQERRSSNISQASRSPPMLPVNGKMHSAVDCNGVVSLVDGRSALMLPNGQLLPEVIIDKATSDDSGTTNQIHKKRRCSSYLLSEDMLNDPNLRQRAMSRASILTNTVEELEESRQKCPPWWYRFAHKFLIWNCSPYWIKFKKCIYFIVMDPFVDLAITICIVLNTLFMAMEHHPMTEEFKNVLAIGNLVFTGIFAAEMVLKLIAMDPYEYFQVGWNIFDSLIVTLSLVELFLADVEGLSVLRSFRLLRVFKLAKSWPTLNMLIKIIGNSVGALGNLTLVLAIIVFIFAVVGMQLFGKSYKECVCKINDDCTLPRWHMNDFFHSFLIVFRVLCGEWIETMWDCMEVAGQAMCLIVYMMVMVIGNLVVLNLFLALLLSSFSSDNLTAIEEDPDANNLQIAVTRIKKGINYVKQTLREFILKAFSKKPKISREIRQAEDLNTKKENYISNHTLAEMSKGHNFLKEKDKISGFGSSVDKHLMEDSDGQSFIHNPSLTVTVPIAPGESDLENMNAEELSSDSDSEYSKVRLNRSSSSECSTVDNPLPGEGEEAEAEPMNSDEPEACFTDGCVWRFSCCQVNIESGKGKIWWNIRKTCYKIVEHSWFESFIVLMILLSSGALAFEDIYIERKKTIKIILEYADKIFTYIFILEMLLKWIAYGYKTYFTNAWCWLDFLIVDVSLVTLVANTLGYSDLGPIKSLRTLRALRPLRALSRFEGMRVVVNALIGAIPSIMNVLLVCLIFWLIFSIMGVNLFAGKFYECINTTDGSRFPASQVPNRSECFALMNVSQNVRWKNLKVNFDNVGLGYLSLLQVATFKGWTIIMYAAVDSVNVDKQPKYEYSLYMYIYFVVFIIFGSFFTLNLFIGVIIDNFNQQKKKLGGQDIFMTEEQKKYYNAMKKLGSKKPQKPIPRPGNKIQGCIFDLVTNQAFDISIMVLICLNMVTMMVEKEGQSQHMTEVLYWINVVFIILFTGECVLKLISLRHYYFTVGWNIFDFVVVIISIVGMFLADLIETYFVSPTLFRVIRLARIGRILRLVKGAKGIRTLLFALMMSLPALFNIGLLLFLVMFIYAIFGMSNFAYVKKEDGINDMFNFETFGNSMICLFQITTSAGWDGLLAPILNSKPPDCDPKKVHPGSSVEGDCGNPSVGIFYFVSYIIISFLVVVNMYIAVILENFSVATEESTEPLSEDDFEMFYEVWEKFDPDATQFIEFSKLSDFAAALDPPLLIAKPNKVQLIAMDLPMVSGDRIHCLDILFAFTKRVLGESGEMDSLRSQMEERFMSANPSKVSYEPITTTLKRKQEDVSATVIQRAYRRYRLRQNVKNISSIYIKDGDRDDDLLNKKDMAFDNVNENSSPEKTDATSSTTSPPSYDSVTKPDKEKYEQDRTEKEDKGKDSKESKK

[3] = target: hNav1.5 (Homo sapiens, UniProt Q14524)
Sequence of hNav1.5 (Q14524 whole entry, looked up): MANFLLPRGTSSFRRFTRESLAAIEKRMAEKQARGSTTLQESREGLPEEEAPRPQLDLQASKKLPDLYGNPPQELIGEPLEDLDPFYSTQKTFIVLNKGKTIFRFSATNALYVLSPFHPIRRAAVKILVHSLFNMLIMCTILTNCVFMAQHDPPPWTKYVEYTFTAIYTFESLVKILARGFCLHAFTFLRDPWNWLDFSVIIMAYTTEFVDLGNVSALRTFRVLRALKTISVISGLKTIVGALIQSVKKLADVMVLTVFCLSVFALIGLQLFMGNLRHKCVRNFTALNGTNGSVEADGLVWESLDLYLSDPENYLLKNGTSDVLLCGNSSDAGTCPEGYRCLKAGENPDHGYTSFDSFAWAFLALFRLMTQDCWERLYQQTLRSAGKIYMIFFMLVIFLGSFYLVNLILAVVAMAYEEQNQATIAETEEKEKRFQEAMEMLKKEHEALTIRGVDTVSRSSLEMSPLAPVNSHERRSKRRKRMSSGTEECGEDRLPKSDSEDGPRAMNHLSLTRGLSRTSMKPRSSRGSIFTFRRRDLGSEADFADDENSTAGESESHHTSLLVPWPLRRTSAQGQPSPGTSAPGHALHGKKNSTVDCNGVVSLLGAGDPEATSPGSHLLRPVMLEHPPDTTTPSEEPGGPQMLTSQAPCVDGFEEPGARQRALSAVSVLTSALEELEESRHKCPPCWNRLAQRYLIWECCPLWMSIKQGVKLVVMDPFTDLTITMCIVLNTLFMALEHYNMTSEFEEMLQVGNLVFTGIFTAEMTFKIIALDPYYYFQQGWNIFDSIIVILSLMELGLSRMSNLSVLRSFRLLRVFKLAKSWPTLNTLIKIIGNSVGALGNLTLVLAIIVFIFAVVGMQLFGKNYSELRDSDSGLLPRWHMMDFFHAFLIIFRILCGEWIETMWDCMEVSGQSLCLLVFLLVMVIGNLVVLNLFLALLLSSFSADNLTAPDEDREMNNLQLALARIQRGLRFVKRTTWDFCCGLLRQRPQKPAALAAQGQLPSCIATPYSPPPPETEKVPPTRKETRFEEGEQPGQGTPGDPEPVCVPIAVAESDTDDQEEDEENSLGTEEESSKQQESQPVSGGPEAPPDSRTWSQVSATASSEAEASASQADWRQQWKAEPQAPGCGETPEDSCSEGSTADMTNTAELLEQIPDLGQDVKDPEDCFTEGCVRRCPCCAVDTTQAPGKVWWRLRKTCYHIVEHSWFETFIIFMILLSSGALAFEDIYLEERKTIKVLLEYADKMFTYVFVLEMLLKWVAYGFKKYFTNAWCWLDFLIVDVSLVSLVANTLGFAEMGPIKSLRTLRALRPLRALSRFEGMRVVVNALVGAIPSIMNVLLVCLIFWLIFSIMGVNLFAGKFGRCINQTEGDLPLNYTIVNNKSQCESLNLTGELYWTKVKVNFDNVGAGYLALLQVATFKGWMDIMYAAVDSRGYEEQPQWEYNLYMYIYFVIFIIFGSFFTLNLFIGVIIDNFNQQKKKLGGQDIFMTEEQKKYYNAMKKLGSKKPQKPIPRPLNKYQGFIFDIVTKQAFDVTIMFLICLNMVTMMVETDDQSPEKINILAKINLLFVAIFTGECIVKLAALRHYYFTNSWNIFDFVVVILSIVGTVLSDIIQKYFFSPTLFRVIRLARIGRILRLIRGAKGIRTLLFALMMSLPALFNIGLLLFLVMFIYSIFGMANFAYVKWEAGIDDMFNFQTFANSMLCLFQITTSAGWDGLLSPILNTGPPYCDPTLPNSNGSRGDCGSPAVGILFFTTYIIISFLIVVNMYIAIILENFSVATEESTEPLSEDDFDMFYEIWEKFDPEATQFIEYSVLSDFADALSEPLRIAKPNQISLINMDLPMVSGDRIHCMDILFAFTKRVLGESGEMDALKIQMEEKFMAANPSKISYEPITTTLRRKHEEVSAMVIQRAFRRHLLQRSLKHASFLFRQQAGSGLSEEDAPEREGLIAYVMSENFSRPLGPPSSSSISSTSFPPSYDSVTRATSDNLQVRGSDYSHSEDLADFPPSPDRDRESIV

[4] = IonWorks Quattro, Use, read-out: IWQ Use Nav1.3
[5] = IonWorks Quattro, Use, read-out: IWQ Use Nav1.7
[6] = IonWorks Quattro, Use, read-out: IWQ Use Nav1.5
[7] = IonWorks Quattro, use-dependent protocol, hNav1.3, read-out: IWQ Use Nav1.3
[8] = IonWorks Quattro, use-dependent protocol, hNav1.7, read-out: IWQ Use Nav1.7
[9] = IonWorks Quattro, use-dependent protocol, hNav1.5, read-out: IWQ Use Nav1.5
[10] = IonWorks Quattro, use-dependent block, hNav1.3, read-out: IWQ Use Nav1.3
[11] = IonWorks Quattro, use-dependent block, hNav1.7, read-out: IWQ Use Nav1.7
[12] = IonWorks Quattro, use-dependent block, hNav1.5, read-out: IWQ Use Nav1.5

Structure (SMILES): CC[C@H](C)[C@@H]1NC(=O)[C@@H]2CSSC[C@@H]3NC(=O)[C@H](C(C)C)NC(=O)[C@H](CC(C)C)NC(=O)[C@H](CC(N)=O)NC(=O)[C@@H]4CCCN4C(=O)[C@H](CCCNC(=N)N)NC(=O)[C@H](CSSC[C@H](NC(=O)[C@@H](N)CC(=O)O)C(=O)N[C@@H](CC(C)C)C(=O)NCC(=O)N[C@@H](Cc4ccccc4)C(=O)N[C@@H](CCSC)C(=O)N[C@@H](CCCNC(=N)N)C(=O)N[C@@H](CCCCN)C(=O)N2)NC(=O)[C@H](CSSC[C@@H](C(=O)N[C@@H](CCCCN)C(=O)N[C@@H](Cc2ccc(O)cc2)C(=O)N[C@H](C(=O)N[C@@H](Cc2ccccc2)C(N)=O)C(C)C)NC(=O)[C@H](Cc2c[nH]c4ccccc24)NC(=O)[C@H](CCCCN)NC(=O)[C@H](Cc2ccc(C(=O)O)cc2)NC(=O)[C@H]([C@@H](C)O)NC(=O)[C@H](CCCNC(=N)N)NC(=O)[C@H](CO)NC3=O)NC(=O)[C@H](CCCCN)NC(=O)[C@H](CC(=O)O)NC(=O)[C@H](CC(N)=O)NC(=O)[C@H](CC(=O)O)NC(=O)[C@@H]2CCCN2C1=O [compound 351] (H-DCLGFMRKCIPDNDKCCRPNLVCSRT[Phe(4-COOH)]KWCKYVF-NH2; disulfide 2-17, 9-23, 16-30)
- IC50 ([1]; Table 23, IonWorks Quattro, use, […], read-out: IWQ Use Nav1.3): 8.41 µM
- IC50 ([2]; Table 23, IonWorks Quattro, use, […], read-out: IWQ Use Nav1.7): 15.4 µM
- IC50 ([3]; Table 23, IonWorks Quattro, use, […], read-out: IWQ Use Nav1.5): 6.65 µM

Structure (SMILES): CC[C@H](C)[C@@H]1NC(=O)[C@@H]2CSSC[C@@H]3NC(=O)[C@H](Cc4ccc(C(=O)O)cc4)NC(=O)[C@H](CC(C)C)NC(=O)[C@H](CC(N)=O)NC(=O)[C@@H]4CCCN4C(=O)[C@H](CCCNC(=N)N)NC(=O)[C@H](CSSC[C@H](NC(=O)[C@@H](N)CC(=O)O)C(=O)N[C@@H](CC(C)C)C(=O)NCC(=O)N[C@@H](Cc4ccccc4)C(=O)N[C@@H](CCSC)C(=O)N[C@@H](CCCNC(=N)N)C(=O)N[C@@H](CCCCN)C(=O)N2)NC(=O)[C@H](CSSC[C@@H](C(=O)N[C@@H](CCCCN)C(=O)N[C@@H](Cc2ccc(O)cc2)C(=O)N[C@H](C(=O)N[C@@H](Cc2ccccc2)C(N)=O)C(C)C)NC(=O)[C@H](Cc2c[nH]c4ccccc24)NC(=O)[C@H](CCCCN)NC(=O)[C@H](Cc2c[nH]cn2)NC(=O)[C@H]([C@@H](C)O)NC(=O)[C@H](CCCNC(=N)N)NC(=O)[C@H](CO)NC3=O)NC(=O)[C@H](CCCCN)NC(=O)[C@H](CC(=O)O)NC(=O)[C@H](CC(N)=O)NC(=O)[C@H](CC(=O)O)NC(=O)[C@@H]2CCCN2C1=O [compound 333] (H-DCLGFMRKCIPDNDKCCRPNL[Phe(4-COOH)]CSRTHKWCKYVF-NH2; disulfide 2-17, 9-23, 16-30)
- IC50 [1, 4]: 4.47 µM
- IC50 [2, 5]: 5.77 µM
- IC50 [3, 6]: 7.5 µM

Structure (SMILES): CC[C@H](C)[C@@H]1NC(=O)[C@@H]2CSSC[C@@H]3NC(=O)[C@H](C(C)C)NC(=O)[C@H](CC(C)C)NC(=O)[C@H](CC(N)=O)NC(=O)[C@@H]4CCCN4C(=O)[C@H](CCCNC(=N)N)NC(=O)[C@H](CSSC[C@H](NC(=O)[C@@H](N)CC(=O)O)C(=O)N[C@@H](CC(C)C)C(=O)NCC(=O)N(C)[C@@H](CC(C)C)C(=O)N[C@@H](CC(C)C)C(=O)N[C@@H](CCCNC(=N)N)C(=O)N[C@@H](CCCCN)C(=O)N2)NC(=O)[C@H](CSSC[C@@H](C(=O)N[C@@H](CCCCN)C(=O)N[C@@H](Cc2ccc(O)cc2)C(=O)N[C@H](C(=O)N[C@@H](Cc2ccccc2)C(N)=O)C(C)C)NC(=O)[C@H](Cc2c[nH]c4ccccc24)NC(=O)[C@H](CCCCN)NC(=O)[C@H](Cc2c[nH]cn2)NC(=O)[C@H]([C@@H](C)O)NC(=O)[C@H](CCCNC(=N)N)NC(=O)[C@H](CO)NC3=O)NC(=O)[C@H](CCCCN)NC(=O)[C@H](CC(=O)O)NC(=O)[C@H](CC(N)=O)NC(=O)[C@H](CC(=O)O)NC(=O)[C@@H]2CCCN2C1=O [compound 673]
- IC50 [1, 7]: 0.69 µM
- IC50 [2, 8]: 0.17 µM
- IC50 [3, 9]: > 5 µM

Structure (SMILES): CC[C@H](C)[C@@H]1NC(=O)[C@@H]2CSSC[C@@H]3NC(=O)[C@H](C(C)C)NC(=O)[C@H](CC(C)C)NC(=O)[C@H](CC(N)=O)NC(=O)[C@@H]4CCCN4C(=O)[C@H](CCCNC(=N)N)NC(=O)[C@H](CSSC[C@H](NC(=O)[C@@H](N)CC(=O)O)C(=O)N[C@@H](CC(C)C)C(=O)NCC(=O)N[C@@H](Cc4ccccc4)C(=O)N[C@@H](CCSC)C(=O)N[C@@H](CCCNC(=N)N)C(=O)N[C@@H](CCCCN)C(=O)N2)NC(=O)[C@H](CSSC[C@@H](C(=O)N[C@@H](CCCCN)C(=O)N[C@@H](Cc2ccc(O)cc2)C(=O)N[C@H](C(=O)N[C@@H](Cc2ccccc2)C(N)=O)C(C)C)NC(=O)[C@H](CCCCN)NC(=O)[C@H](CCCCN)NC(=O)[C@H](Cc2cnc[nH]2)NC(=O)[C@H]([C@@H](C)O)NC(=O)[C@H](CCCNC(=N)N)NC(=O)[C@H](CO)NC3=O)NC(=O)[C@H](CCCCN)NC(=O)[C@H](CC(=O)O)NC(=O)[C@H](CC(N)=O)NC(=O)[C@H](CC(=O)O)NC(=O)[C@@H]2CCCN2C1=O [compound 56] (H-DCLGFMRKCIPDNDKCCRPNLVCSRTHKKCKYVF-NH2; disulfide 2-17, 9-23, 16-30)
- IC50 [1]: 24.5 µM
- IC50 [2]: 20.1 µM
- IC50 ([3]; IWQ Use Nav1.5 (μM)): 14.7 µM

Structure (SMILES): CC[C@H](C)[C@@H]1NC(=O)[C@@H]2CSSC[C@@H]3NC(=O)[C@H](C(C)C)NC(=O)[C@H](CC(C)C)NC(=O)[C@H](CC(N)=O)NC(=O)[C@@H]4CCCN4C(=O)[C@H](CCCNC(=N)N)NC(=O)[C@H](CSSC[C@H](NC(=O)[C@@H](N)CC(=O)O)C(=O)N[C@@H](CC(C)C)C(=O)NCC(=O)N[C@@H](C)C(=O)N[C@@H](CCSC)C(=O)N[C@@H](CCCNC(=N)N)C(=O)N[C@@H](CCCCN)C(=O)N2)NC(=O)[C@H](CSSC[C@@H](C(=O)N[C@@H](CCCCN)C(=O)N[C@@H](Cc2ccc(O)cc2)C(=O)N[C@H](C(=O)N[C@@H](Cc2ccccc2)C(N)=O)C(C)C)NC(=O)[C@H](Cc2c[nH]c4ccccc24)NC(=O)[C@H](CCCCN)NC(=O)[C@H](Cc2c[nH]cn2)NC(=O)[C@H]([C@@H](C)O)NC(=O)[C@H](CCCNC(=N)N)NC(=O)[C@H](CO)NC3=O)NC(=O)[C@H](CCC(=O)O)NC(=O)[C@H](CC(=O)O)NC(=O)[C@H](CC(N)=O)NC(=O)[C@H](CC(=O)O)NC(=O)[C@@H]2CCCN2C1=O [compound 439] (H-DCLGAMRKCIPDNDECCRPNLVCSRTHKWCKYVF-NH2; disulfide 2-17, 9-23, 16-30)
- IC50 [1, 10]: 4.8 µM
- IC50 [2, 11]: 2.41 µM
- IC50 [3, 12]: 10.8 µM

Structure (SMILES): CC[C@H](C)[C@@H]1NC(=O)[C@@H]2CSSC[C@@H]3NC(=O)[C@H](C(C)C)NC(=O)[C@H](CC(C)C)NC(=O)[C@H](CC(N)=O)NC(=O)[C@@H]4CCCN4C(=O)[C@H](CCCNC(=N)N)NC(=O)[C@H](CSSC[C@H](NC(=O)[C@@H](N)CC(=O)O)C(=O)N[C@@H](CC(C)C)C(=O)NCC(=O)N[C@@H](C)C(=O)N[C@@H](CCSC)C(=O)N[C@@H](CCCNC(=N)N)C(=O)N[C@@H](CCCCN)C(=O)N2)NC(=O)[C@H](CSSC[C@@H](C(=O)N[C@@H](CCCCN)C(=O)N[C@@H](Cc2ccc(O)cc2)C(=O)N[C@H](C(=O)N[C@@H](Cc2ccccc2)C(N)=O)C(C)C)NC(=O)[C@H](Cc2c[nH]c4ccccc24)NC(=O)[C@H](CCC(N)=O)NC(=O)[C@H](Cc2c[nH]cn2)NC(=O)[C@H]([C@@H](C)O)NC(=O)[C@H](CCCNC(=N)N)NC(=O)[C@H](CO)NC3=O)NC(=O)[C@H](CCCCN)NC(=O)[C@H](CC(=O)O)NC(=O)[C@H](CC(N)=O)NC(=O)[C@H](CC(=O)O)NC(=O)[C@@H]2CCCN2C1=O [compound 739] (H-DCLGAMRKCIPDNDKCCRPNLVCSRTHQWCKYVF-NH2; disulfide 2-17, 9-23, 16-30)
- IC50 [1, 10]: 2.2 µM
- IC50 [2, 11]: 0.63 µM
- IC50 [3, 12]: 20.5 µM

Structure (SMILES): CSCC[C@@H]1NC(=O)[C@H](Cc2ccccc2)NC(=O)CNC(=O)[C@H](CC(C)C)NC(=O)[C@@H](NC(=O)[C@@H](N)CC(=O)O)CSSC[C@@H]2NC(=O)[C@@H]3CSSC[C@@H](C(=O)N[C@@H](CCCCN)C(=O)N[C@@H](Cc4ccc(O)cc4)C(=O)N[C@H](C(=O)N[C@@H](Cc4ccccc4)C(N)=O)C(C)C)NC(=O)[C@H](Cc4c[nH]c5ccccc45)NC(=O)[C@H](CCCCN)NC(=O)[C@H](Cc4c[nH]cn4)NC(=O)[C@H]([C@@H](C)O)NC(=O)[C@H](CCCNC(=N)N)NC(=O)[C@H](CO)NC(=O)[C@H](CSSC[C@H](NC(=O)[C@H](CCCCN)NC(=O)[C@H](CCCNC(=N)N)NC1=O)C(=O)N[C@@H](Cc1ccccn1)C(=O)N1CCC[C@H]1C(=O)N[C@@H](CC(=O)O)C(=O)N[C@@H](CC(N)=O)C(=O)N[C@@H](CC(=O)O)C(=O)N[C@@H](CCCCN)C(=O)N3)NC(=O)[C@H](C(C)C)NC(=O)[C@H](CC(C)C)NC(=O)[C@H](CC(N)=O)NC(=O)[C@@H]1CCCN1C(=O)[C@H](CCCNC(=N)N)NC2=O [compound 311]
- IC50 [1, 4]: 0.04 µM
- IC50 [2, 5]: 0.19 µM
- IC50 [3, 6]: 8.83 µM

Structure (SMILES): CSCC[C@@H]1NC(=O)[C@H]([C@@H](C)O)NC(=O)CNC(=O)[C@H](CC(C)C)NC(=O)[C@@H](NC(=O)[C@@H](N)CC(=O)O)CSSC[C@@H]2NC(=O)[C@@H]3CSSC[C@@H](C(=O)N[C@@H](CCCCN)C(=O)N[C@@H](Cc4ccc(O)cc4)C(=O)N[C@H](C(=O)N[C@@H](Cc4ccccc4)C(N)=O)C(C)C)NC(=O)[C@H](Cc4c[nH]c5ccccc45)NC(=O)[C@H](CCCCN)NC(=O)[C@H](Cc4c[nH]cn4)NC(=O)[C@H]([C@@H](C)O)NC(=O)[C@H](CCCNC(=N)N)NC(=O)[C@H](CO)NC(=O)[C@H](CSSC[C@H](NC(=O)[C@H](CCCCN)NC(=O)[C@H](CCCNC(=N)N)NC1=O)C(=O)N[C@@H](CC(=O)O)C(=O)N1CCC[C@H]1C(=O)N[C@@H](CC(=O)O)C(=O)N[C@@H](CC(N)=O)C(=O)N[C@@H](CC(=O)O)C(=O)N[C@@H](CCCCN)C(=O)N3)NC(=O)[C@H](C(C)C)NC(=O)[C@H](CC(C)C)NC(=O)[C@H](CC(N)=O)NC(=O)[C@@H]1CCCN1C(=O)[C@H](CCCNC(=N)N)NC2=O [compound 714] (H-DCLGTMRKCDPDNDKCCRPNLVCSRTHKWCKYVF-NH2; disulfide 2-17, 9-23, 16-30)
- IC50 [1, 7]: > 5 µM
- IC50 [2, 8]: 1.6 µM
- IC50 [3, 9]: 48 µM
